From ChEMBL document CHEMBL1909046, “DrugMatrix in vitro pharmacology data”

Key:
[1] = DRUGMATRIX: Purinergic P2X radioligand binding (ligand: [3H] alpha, beta-Methylene-ATP); type: cell membranes, Oryctolagus cuniculus, New Zealand albino, Urinary bladder, Membrane; settings: Not Active = under 50% inhibition at 10 µM
[2] = DRUGMATRIX: Nicotinic Acetylcholine radioligand binding (ligand: [125I] Epibatidine); type: cell membranes, Membrane; settings: imr-32; Not Active = under 50% inhibition at 10 µM
[3] = DRUGMATRIX: GABAA, Chloride Channel, TBOB radioligand binding (ligand: [3H] TBOB); type: cell membranes, Rattus norvegicus, Wistar, Cerebral cortex, Membrane; settings: Not Active = under 50% inhibition at 10 µM
Cytochrome P450 1A2 = target: T1, Cytochrome P450 1A2 (Homo sapiens, UniProt P05177); settings: bti-tn-5b1-4; note: in other assays of this panel Not Active means under 50% inhibition at 10 µM
T1 sequence (P05177 whole entry): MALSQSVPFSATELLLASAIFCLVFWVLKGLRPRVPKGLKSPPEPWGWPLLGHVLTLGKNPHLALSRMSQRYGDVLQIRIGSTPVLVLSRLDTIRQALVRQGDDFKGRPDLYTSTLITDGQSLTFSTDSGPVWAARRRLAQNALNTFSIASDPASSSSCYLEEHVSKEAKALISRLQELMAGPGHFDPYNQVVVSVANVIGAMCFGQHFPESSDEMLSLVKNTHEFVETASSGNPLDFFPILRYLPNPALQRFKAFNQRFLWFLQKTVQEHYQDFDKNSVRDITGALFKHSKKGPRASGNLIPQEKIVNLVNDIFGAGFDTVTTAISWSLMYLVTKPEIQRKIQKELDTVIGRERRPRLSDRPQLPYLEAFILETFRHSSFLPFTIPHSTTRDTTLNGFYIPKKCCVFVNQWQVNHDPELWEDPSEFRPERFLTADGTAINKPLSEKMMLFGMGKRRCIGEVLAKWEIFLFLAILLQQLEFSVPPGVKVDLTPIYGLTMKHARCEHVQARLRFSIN

[4] = DRUGMATRIX: Interleukin IL-1 radioligand binding (ligand: [125I] interleukin 1beta); type: cell membranes, Membrane; settings: nih3t3; Not Active = under 50% inhibition at 10 µM
[5] = target: T2, Muscarinic acetylcholine receptor M5 (Homo sapiens, UniProt P08912); type: cell membranes, CHO-K1, Membrane; note: in other assays of this panel Not Active means under 50% inhibition at 10 µM
T2 sequence (P08912 whole entry): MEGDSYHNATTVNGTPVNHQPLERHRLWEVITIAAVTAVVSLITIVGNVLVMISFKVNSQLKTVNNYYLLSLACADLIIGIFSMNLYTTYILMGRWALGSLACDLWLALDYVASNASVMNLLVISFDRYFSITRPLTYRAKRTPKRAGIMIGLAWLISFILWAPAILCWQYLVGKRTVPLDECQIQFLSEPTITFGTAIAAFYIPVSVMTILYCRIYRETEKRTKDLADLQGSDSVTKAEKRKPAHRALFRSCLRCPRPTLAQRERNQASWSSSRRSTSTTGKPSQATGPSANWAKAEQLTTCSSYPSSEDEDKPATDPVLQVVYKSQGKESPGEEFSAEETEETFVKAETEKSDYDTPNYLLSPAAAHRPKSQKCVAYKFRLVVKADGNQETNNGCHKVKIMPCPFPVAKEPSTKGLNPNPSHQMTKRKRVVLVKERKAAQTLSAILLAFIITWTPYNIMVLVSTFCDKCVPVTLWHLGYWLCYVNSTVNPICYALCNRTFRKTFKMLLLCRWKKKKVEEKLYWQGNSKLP

[6] = target: 5-hydroxytryptamine receptor 4 (Cavia porcellus, UniProt O70528); type: cell membranes, Dunkin-Hartley, Striatum, Membrane; note: in other assays of this panel Not Active means under 50% inhibition at 10 µM
5-hydroxytryptamine receptor 4, sequence (O70528 whole entry): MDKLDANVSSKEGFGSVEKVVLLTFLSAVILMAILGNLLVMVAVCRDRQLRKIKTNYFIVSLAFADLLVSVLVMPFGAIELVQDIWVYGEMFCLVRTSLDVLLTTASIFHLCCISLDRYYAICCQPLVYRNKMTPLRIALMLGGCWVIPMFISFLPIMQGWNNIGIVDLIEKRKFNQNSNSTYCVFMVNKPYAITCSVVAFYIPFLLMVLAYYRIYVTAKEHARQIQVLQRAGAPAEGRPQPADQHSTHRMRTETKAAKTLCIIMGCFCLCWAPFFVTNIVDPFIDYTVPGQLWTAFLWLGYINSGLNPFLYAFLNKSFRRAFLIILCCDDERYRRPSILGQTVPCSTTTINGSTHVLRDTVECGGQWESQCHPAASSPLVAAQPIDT

[7] = DRUGMATRIX: Glutamate, AMPA radioligand binding (ligand: [3H] AMPA); type: cell membranes, Rattus norvegicus, Wistar, Cerebral cortex, Membrane; settings: Not Active = under 50% inhibition at 10 µM

Molecule	IC50 [1]	Ki [1]	IC50 [2]	Ki [2]	IC50 [3]	Ki [3]	IC50 (Cytochrome P450 1A2)	Ki (Cytochrome P450 1A2)	IC50 [4]	Ki [4]	IC50 ([5]; cho-k1)	IC50 [6]	IC50 [7]	Ki [7]	Ki ([5]; cho-k1)	Ki [6]	IC50 ([5]; read-out: IC50)	Ki ([5]; read-out: Ki)
COc1ccc2c(c1OC)C(=O)O[C@@H]2[C@H]1c2c(cc3c(c2OC)OCO3)CCN1C [NOSCAPINE]	Not Active	Not Active	Not Active	Not Active	Not Active	Not Active	Not Active	Not Active	Not Active	Not Active	Not Active	Not Active	Not Active	Not Active	–	–	–	–
COLISTIN	Not Active	Not Active	Not Active	Not Active	Not Active	Not Active	Not Active	Not Active	Not Active	Not Active	Not Active	Not Active	Not Active	Not Active	Not Active	Not Active	–	–
CCN(C(C)=O)c1cccc(-c2ccnc3c(C#N)cnn23)c1 [ZALEPLON]	Not Active	Not Active	Not Active	Not Active	Not Active	Not Active	Not Active	Not Active	Not Active	Not Active	Not Active	Not Active	Not Active	Not Active	–	–	–	–
CN1C(=O)CN=C(c2ccccc2)c2cc([N+](=O)[O-])ccc21 [NIMETAZEPAM]	Not Active	Not Active	Not Active	Not Active	Not Active	Not Active	Not Active	Not Active	Not Active	Not Active	Not Active	Not Active	Not Active	Not Active	–	–	–	–
ClC(Cl)(Cl)Cl [CARBON TETRACHLORIDE]	Not Active	Not Active	Not Active	Not Active	Not Active	Not Active	Not Active	Not Active	Not Active	Not Active	Not Active	Not Active	Not Active	Not Active	–	–	–	–
CN(C)CCC=C1c2ccccc2CCc2ccccc21 [AMITRIPTYLINE]	Not Active	Not Active	Not Active	Not Active	Not Active	Not Active	Not Active	Not Active	Not Active	Not Active	–	Not Active	Not Active	Not Active	–	–	0.00802 µM	0.00576 µM
C[C@]12CC[C@H]3[C@@H](CCC4=CC(=O)CC[C@@H]43)[C@@H]1CC[C@@H]2O [NANDROLONE]	Not Active	Not Active	Not Active	Not Active	Not Active	Not Active	Not Active	Not Active	Not Active	Not Active	Not Active	Not Active	Not Active	Not Active	–	–	–	–
N=C(N)c1ccc(OCCCCCOc2ccc(C(=N)N)cc2)cc1 [PENTAMIDINE]	Not Active	Not Active	Not Active	Not Active	Not Active	Not Active	Not Active	Not Active	Not Active	Not Active	–	Not Active	Not Active	Not Active	–	–	2.88 µM	2.07 µM
COc1cccc2c1C(=O)c1c(O)c3c(c(O)c1C2=O)C[C@@](O)(C(C)=O)C[C@@H]3O[C@H]1C[C@H](N)[C@H](O)[C@H](C)O1 [DAUNORUBICIN]	Not Active	Not Active	Not Active	Not Active	Not Active	Not Active	Not Active	Not Active	Not Active	Not Active	Not Active	Not Active	Not Active	Not Active	–	–	–	–
CC(O)(P(=O)(O)O)P(=O)(O)O [ETIDRONIC ACID]	Not Active	Not Active	Not Active	Not Active	Not Active	Not Active	Not Active	Not Active	Not Active	Not Active	Not Active	Not Active	Not Active	Not Active	–	–	–	–
CC(=O)Oc1ccccc1C(=O)O [ASPIRIN]	Not Active	Not Active	Not Active	Not Active	Not Active	Not Active	Not Active	Not Active	Not Active	Not Active	Not Active	Not Active	Not Active	Not Active	–	–	–	–
O=c1[nH]c(=O)n([C@H]2C[C@H](O)[C@@H](CO)O2)cc1F [FLOXURIDINE]	Not Active	Not Active	Not Active	Not Active	Not Active	Not Active	Not Active	Not Active	Not Active	Not Active	Not Active	Not Active	Not Active	Not Active	–	–	–	–
O=C(O)CC(O)(CC(=O)O)C(=O)O [CITRIC ACID]	Not Active	Not Active	Not Active	Not Active	Not Active	Not Active	Not Active	Not Active	Not Active	Not Active	Not Active	Not Active	Not Active	Not Active	–	–	–	–
CCCCC1=NC2(CCCC2)C(=O)N1Cc1ccc(-c2ccccc2-c2nnn[nH]2)cc1 [IRBESARTAN]	Not Active	Not Active	Not Active	Not Active	Not Active	Not Active	Not Active	Not Active	Not Active	Not Active	Not Active	Not Active	Not Active	Not Active	–	–	–	–
O=c1c(-c2ccc(O)cc2)coc2cc(O)cc(O)c12 [GENISTEIN]	Not Active	Not Active	Not Active	Not Active	Not Active	Not Active	Not Active	Not Active	Not Active	Not Active	Not Active	Not Active	Not Active	Not Active	–	–	–	–
C[C@H]1O[C@H](O[C@H]2[C@H](O)[C@@H](O)[C@@H](O[C@H]3[C@H](O)[C@@H](O)C(O)O[C@@H]3CO)O[C@@H]2CO)[C@H](O)[C@@H](O)[C@@H]1N[C@H]1C=C(CO)[C@@H](O)[C@H](O)[C@H]1O (some centres not stated) [ACARBOSE]	Not Active	Not Active	Not Active	Not Active	Not Active	Not Active	Not Active	Not Active	Not Active	Not Active	Not Active	Not Active	Not Active	Not Active	–	–	–	–
COc1ccccc1N	Not Active	Not Active	Not Active	Not Active	Not Active	Not Active	Not Active	Not Active	Not Active	Not Active	Not Active	Not Active	Not Active	Not Active	–	–	–	–
